Results on 15 compounds are retold here after PubChem BioAssay (NCI).

Some test systems named below: MALME-3M melanoma; U251 CNS; UO-31 renal; SW-620 colon; RXF 393 renal; OVCAR-5 ovarian; EKVX NSCLC; MDA-MB-231 breast; MCF7 breast.
Holding throughout (experiment): inhibition of tumour cell growth, NCI panel, 48 h

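Cells were grown in 96-well plates and exposed to each compound for 48 hours at five concentrations; endpoints were interpolated linearly between bracketing concentrations, or set to the highest concentration if not reached. The concentration for 50% growth inhibition is given as GI50. The concentration for full growth arrest is given as TGI.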

Take `CC(=O)c1c2c(cc3c1CC1(C3)Cc3cc4c(c(C(C)=O)c3C1)CCC4)CCC2`: the TGI with MALME-3M melanoma, in the test with U251 CNS, in the test on UO-31 renal, in the test with SW-620 colon, in the test with RXF 393 renal and in the test with OVCAR-5 ovarian was more than 100 µM throughout.

In the case of `CN(C)CCNC(=O)c1cccc2cc3c(Cl)cccc3nc12`, the TGI with MALME-3M melanoma is 2.1 µM; in the test with EKVX NSCLC, 9.58 µM; in the test with U251 CNS, 6.3 µM; in the test with UO-31 renal, more than 28.7 µM; in the test with SW-620 colon, 6.17 µM; with RXF 393 renal it was 3.62 µM. The same compound returned a TGI in the test on OVCAR-5 ovarian of 6.68 µM.

Turning to `O=C([CH-]C(=O)c1ccccc1)c1ccccc1.[CH-]1CCCCC1.[CH-]1CCCCC1.[CH-]1CCCCC1.[Sn+4]`, the GI50 in the test on MALME-3M melanoma was 8.75 µM; with EKVX NSCLC it was 10.7 µM; in the test on U251 CNS, 6.86 µM; in the test on UO-31 renal it was 12.5 µM; with SW-620 colon, 3 µM; in the test with RXF 393 renal it was 2.71 µM. For the same compound, the GI50 in the test on OVCAR-5 ovarian is 22.8 µM. The TGI is 22.1 µM in the test on MALME-3M melanoma; 32.6 µM in the test with EKVX NSCLC; 20.8 µM with U251 CNS; 25 µM in the test on UO-31 renal; 9.72 µM in the test on SW-620 colon; 10.1 µM in the test on RXF 393 renal. The compound also showed a TGI with OVCAR-5 ovarian of 39.7 µM.

As for `CNC(=O)c1c(NC(=O)c2ccc(C(C)(C)C)cc2)sc2c(CN(C)C)c(O)ccc12`, the GI50 is 1.73 µM in the test on MALME-3M melanoma; 1.81 µM with MDA-MB-231 breast; 1.41 µM in the test with MCF7 breast; 1.49 µM in the test on UO-31 renal; 1.74 µM with SW-620 colon; 1.67 µM in the test on RXF 393 renal. Besides, the GI50 in the test with OVCAR-5 ovarian is 1.85 µM. Moreover, the TGI with MALME-3M melanoma was 3.51 µM; with MDA-MB-231 breast, 3.67 µM; in the test with MCF7 breast, 2.95 µM; in the test with UO-31 renal it was 2.89 µM; in the test on SW-620 colon it was 3.38 µM; in the test with RXF 393 renal it was 3.33 µM. Also, in the test on OVCAR-5 ovarian, the TGI came out at 3.68 µM.

On to `O=C1C(c2ccc(Br)cc2)=[N+]([O-])c2ccccc21`, for which the TGI in the test on MALME-3M melanoma stood at 32.7 µM; with EKVX NSCLC, 29.5 µM; in the test with U251 CNS it was 27.9 µM; with UO-31 renal it was 38.7 µM; in the test on SW-620 colon, 41.5 µM; with RXF 393 renal it was 31.4 µM. This compound also registered a TGI with OVCAR-5 ovarian of 35.5 µM.

As for `N/C(=N\N=C\c1ccc(C(F)(F)F)cc1)NO`, the TGI with MALME-3M melanoma is more than 100 µM; with EKVX NSCLC, 33.7 µM; in the test with U251 CNS, 87.3 µM; with SW-620 colon it was more than 100 µM; with RXF 393 renal, more than 100 µM.

In the case of `CCOP(=O)(OCC)C1CCCOC1=O` (centres undefined), the TGI with MALME-3M melanoma, in the test with EKVX NSCLC, in the test on U251 CNS, with UO-31 renal, in the test on SW-620 colon and in the test with RXF 393 renal was more than 100 µM each time. In the test with OVCAR-5 ovarian, the TGI is more than 100 µM.

For the compound `COCN1COCN=C1NC#N`, the TGI with MALME-3M melanoma was more than 100 µM; with EKVX NSCLC, more than 100 µM; in the test with U251 CNS it was more than 100 µM; in the test with UO-31 renal, more than 100 µM; in the test on SW-620 colon, 66.8 µM; with RXF 393 renal it was more than 100 µM. The TGI in the test on OVCAR-5 ovarian was more than 100 µM.

Take `COC(=O)N/N=C(\C)c1c(O)cc(C)oc1=O`: the TGI in the test with MALME-3M melanoma, with EKVX NSCLC, in the test with U251 CNS, in the test on UO-31 renal and in the test with SW-620 colon was more than 100 µM throughout.

With `O=[N+]([O-])C=C(c1ccc(Cl)cc1)c1ccc(Cl)cc1`, the TGI with EKVX NSCLC worked out at 32.5 µM; in the test with U251 CNS, 29.8 µM; in the test with UO-31 renal, 27.2 µM; in the test on SW-620 colon, 31 µM; with RXF 393 renal it was 33.5 µM; with OVCAR-5 ovarian, 27.7 µM.

Consider `COc1ccc(CN2c3ccccc3Sc3ccccc32)c(C(F)(F)F)c1`, for which the GI50 was 21 µM in the test with MALME-3M melanoma; 1.2 µM with EKVX NSCLC; 0.431 µM in the test on U251 CNS; 3.05 µM in the test on MDA-MB-231 breast; 0.349 µM in the test on MCF7 breast; 3.98 µM in the test on UO-31 renal. Also, the GI50 in the test with SW-620 colon is 0.443 µM; in the test on RXF 393 renal, 0.38 µM; in the test with OVCAR-5 ovarian, 9.75 µM. The TGI was more than 100 µM in the test with MALME-3M melanoma; more than 100 µM in the test with EKVX NSCLC; 27.4 µM in the test with U251 CNS; 58.6 µM with MDA-MB-231 breast; 36.8 µM in the test with MCF7 breast; more than 100 µM in the test with UO-31 renal. The figures for the TGI in the test on SW-620 colon, in the test on RXF 393 renal and with OVCAR-5 ovarian were more than 100 µM, 6.55 µM and more than 100 µM, respectively.

Take `CN(C)C(=N/O)/C(=N\O)N(C)C`: the TGI in the test with MALME-3M melanoma, in the test with EKVX NSCLC, in the test with U251 CNS, in the test on UO-31 renal, in the test on SW-620 colon and in the test on RXF 393 renal was more than 100 µM in each case. The compound also came in with a TGI with OVCAR-5 ovarian of more than 100 µM.

In the case of `O=C(O)[C@H](NS(=O)(=O)c1ccc(F)cc1)c1ccccc1`, the TGI with MALME-3M melanoma, in the test on EKVX NSCLC, in the test with U251 CNS, in the test on UO-31 renal, in the test on SW-620 colon and in the test on RXF 393 renal was more than 100 µM in each case. The compound also registered a TGI with OVCAR-5 ovarian of more than 100 µM.

For the compound `c1ccc(C2OC3(CCC[C@H]4C[C@H]43)O[C@H]2c2ccccc2)cc1` (some centres undefined), the TGI was 88 µM with MALME-3M melanoma; more than 100 µM with EKVX NSCLC; more than 100 µM in the test with U251 CNS; more than 100 µM in the test on UO-31 renal; more than 100 µM with SW-620 colon; 79 µM with RXF 393 renal. In the test on OVCAR-5 ovarian, the TGI was more than 100 µM.

With `O=S(=O)(O)c1cc(O)c(N=Nc2ccc(O)cc2O)c2ccccc12`, the TGI with MALME-3M melanoma, with EKVX NSCLC, in the test on U251 CNS, with MDA-MB-231 breast, in the test with SW-620 colon and in the test on RXF 393 renal was more than 100 µM in each case. The same compound returned a TGI with OVCAR-5 ovarian of more than 100 µM.
